Source: patent US9139638B2, “Mouse model of cholinergic dysfunction to evaluate cognitive enhancers and drugs that improve myasthenia” (priority 2006, dated 2015)

System: VAChT KD^HOM mice
Experiment: Grip force test in VAChT KD^HOM mice
Assay type: in vivo
Conditions: pyridostigmine i.p. 1 mg/kg, 30 min prior to the test, FIG. 4B, p<0.05
Experimental: To evaluate whether the alterations detected in neuromuscular transmission may affect neuromuscular function, we tested the performance of wild-type and mutant mice in motor tasks (FIG. 4). The wire-hang experiments were conducted as described (Sango et al. (1996) Mice lacking both subunits of lysosomal beta-hexosaminidase display gangliosidosis and mucopolysaccharidosis. Nat. Genet. 14:348-352) and time spent hanging upside down was determined with a cut-off time of 60 sec.
To measure grip force, we used a custom built force transducer connected to a small support that could be grasped by the mouse as described (Fowler et al. (2002) Motor and associative deficits in D2 dopamine receptor knockout mice. Int. J. Dev. Neurosci. 20:309-321). Five tests were performed per mouse with a maximum period of 50 sec for each animal over two different days. The force transducer was coupled to a computer and a routine was developed to record the maximal grip-force exerted. By comparison, VAChT KD^HET mice present no deficit in neuromuscular function as assessed in this test. Importantly, reduced grip-strength in VAChT KD^HOM mice was improved by prior injection of one of three cholinesterase inhibitors: pyridostigmine (i.p. 1 mg/kg), galantamine (s.c. 1 mg/kg) or physostigmine (i.p., 0.3 mg/kg), (FIG. 4B, F(3,47)=8.323 p<0.05). […]

With `CN(C)C(=O)Oc1ccc[n+](C)c1` [pyridostigmine] as the molecule, how does the “grip-strength (maximal grip-force)” value read?
Its value is “improved”.
